These results are taken from article PMC8997399, “High-Throughput Screening to Identify Inhibitors of Plasmodium falciparum Importin α” (Cells, 2022).

Like-named read-outs stand apart in the source and are kept apart here.

Assay [1] addresses PfIMPα (Plasmodium falciparum, UniProt Q8IAW0). The experiment in a line: biochemical. As to conditions: for % Inhibition of IMPα-NLS Interaction PfIMPα: compounds at 10 μM, PfIMPα (10 nM):TGS1-NLS-GFP (60 nM), relative to 1% DMSO control, quadruplicate. It is filed as binding. The protocol: (§1) PfIMPα, TgIMPα, Mus musculus IMPα (MmIMPα), ΔIBBMmIMPα, and β1 (MmIMPβ) GST fusion proteins were expressed and purified essentially as previously. His-tagged TGS1-NLS-GFP, PfIMPα and TgIMPα proteins were purified using Ni^2+-affinity chromatography as described. His-tagged SV40 T-ag-NLS-GFP was purified as previously. Biotinylation of GST-tagged proteins was carried out using the Sulfo-NHS-Biotin reagent (Pierce, Rockford, IL, USA) as described previously. AlphaScreen binding assay was performed as described previously.
Then, 10 nM biotinylated PfIMPα and 60 nM TGS1-NLS-GFP were used with library compounds, screened at 10 µM final concentration.
Briefly, 5 μL of each compound in DMSO was added to quadruplicate wells of a 384-well plate along with appropriate controls including DMSO alone and ivermectin, as previously, using a JANUS Modular Dispense Technology (MDT) robotic system (PerkinElmer, Waltham, MA, USA). This was followed by successive 7 and 5 μL additions, respectively, of PfIMPα (10 nM) and TGS1-NLS-GFP (60 nM) or PBS (“no bait” control), respectively, and 30 min incubation at room temperature. […] Then, 4 µL of the AlphaScreen donor beads (1/40 dilution of GSH. acceptor beads in PBS) was finally added to each well using a Multidrop, followed by a further incubation of 2 h at room temperature in the dark.
(§2) Plates were read for an Alphascreen signal on an Envision plate reader (PerkinElmer, Waltham, MA, USA), with signals from the negative control wells (no bait control) on each plate subtracted.

The target in assay [2] is TgIMPα (Toxoplasma gondii, UniProt A0A125YID0). In words: biochemical. Type of assay: binding. As to conditions: for % Inhibition of IMPα-NLS Interaction TgIMPα: compounds at 10 μM, TgIMPα (5 nM):T-ag-NLS-GFP (30 nM), relative to 1% DMSO control. The protocol:
as §1, §2

The subject of assay [3] is P. falciparum 3D7 strain. The experiment in a line: P. falciparum growth inhibition assay (HRP2 sandwich ELISA). Type of assay: cell-based, Plasmodium falciparum. The protocol: Red blood cells (RBCs) were derived from blood from volunteers (approval from the Institute Ethics Committee, IIT Bombay, Mumbai, India) by density gradient centrifugation. Aliquots of cryopreserved P. falciparum 3D7 strain in human red blood cells (RBCs—3% hematocrit, <5% parasitemia) were thawed and cultured using RPMI (Roswell Park Memorial Institute) 1640 medium supplemented with 0.5% Albumax (Gibco^TM, Waltham, MA, USA), 50 mg/L hypoxanthine (Sigma-Aldrich, St Louis, MO, USA), 2 g/L D-glucose (Sigma-Aldrich, St Louis, MO, USA), 2 g/L sodium bicarbonate (Sigma-Aldrich, St Louis, MO, USA), and 56 mg/L of gentamicin (Abbott, Chicago, IL, USA) at 37 °C in 5% CO2 in a humidified incubator according to the standard procedures; suspension cultures were maintained at 3% hematocrit and <5% parasitemia, by adding a fresh medium daily and a regular addition of fresh human RBCs.
Before growth inhibition assays, cultures were synchronized using 5% D-sorbitol (Sigma-Aldrich, St Louis, MO, USA) predominantly to obtain the ring stage of the P. falciparum life cycle.
Growth assays in the absence and presence of inhibitors were performed using the Histidine–Rich Protein 2 (HRP2) sandwich horseradish peroxidase-linked immunosorbent assay to measure HRP2 protein levels as an indicator of growth. Briefly, 25 µL of compound was added to 96-well microculture plates (Eppendorf, Hamburg, Germany) of 0.25% (with fresh RBCs), and added at a hematocrit of 3%. The plates were then incubated for 72 h at 37 °C in a humidified incubator, sparged with 5% CO2. 72 h later, the plates were subjected to freeze–thaw to achieve hemolysis, and samples diluted 200-fold in H2O in transferring to another plate. A day prior to analysis, 96-well ELISA plates (Sigma-Aldrich, St Louis, MO, USA) were coated overnight at 4 °C with 100 µL of 1 μg/mL IgM capture antibody MPFM-55A (Immunology Consultants Laboratory, Portland, OR, USA) specific for P. falciparum HRP2. After blocking for 2 h at room temperature with 2% BSA in PBS, diluted samples were added to the wells, followed by incubation for 2 h, then the plates were washed three times with 0.05% Tween 20 in PBS. Next, 100 µL of the secondary antibody MPFG-55P (Immunology Consultants Laboratory, Portland, OR, USA) conjugated with horseradish peroxidase (0.25 μg/mL in PBS with 2% BSA) was then added to each well, and the plates incubated for 1 h at room temperature, prior to being washed three times, and 100 µL 3,3′, 5,5′ tetramethylbenzidine substrate (BD Biosciences, San Jose, CA, USA) being added. After 10 min incubation in the dark, 50 µL of 1 M H2SO4 was added and the absorbance was read at 450 nm on a Multiscan™ FC Microplate Spectrophotometer (Thermo Fisher Scientific, Waltham, MA, USA).
Background: In an ELISA, binding on a coated surface is turned into a signal by an enzyme label.

The mark [4] stands for this setting: pooled, mean ± SEM (n = 3), read-out: IC50 TgIMPα:T-ag-NLS-GFP.
[5] abbreviates: 10 µM, 72 h, 0.25% parasitemia (Figure 5A).

Chain of PfIMPα (Q8IAW0 entry or part of it): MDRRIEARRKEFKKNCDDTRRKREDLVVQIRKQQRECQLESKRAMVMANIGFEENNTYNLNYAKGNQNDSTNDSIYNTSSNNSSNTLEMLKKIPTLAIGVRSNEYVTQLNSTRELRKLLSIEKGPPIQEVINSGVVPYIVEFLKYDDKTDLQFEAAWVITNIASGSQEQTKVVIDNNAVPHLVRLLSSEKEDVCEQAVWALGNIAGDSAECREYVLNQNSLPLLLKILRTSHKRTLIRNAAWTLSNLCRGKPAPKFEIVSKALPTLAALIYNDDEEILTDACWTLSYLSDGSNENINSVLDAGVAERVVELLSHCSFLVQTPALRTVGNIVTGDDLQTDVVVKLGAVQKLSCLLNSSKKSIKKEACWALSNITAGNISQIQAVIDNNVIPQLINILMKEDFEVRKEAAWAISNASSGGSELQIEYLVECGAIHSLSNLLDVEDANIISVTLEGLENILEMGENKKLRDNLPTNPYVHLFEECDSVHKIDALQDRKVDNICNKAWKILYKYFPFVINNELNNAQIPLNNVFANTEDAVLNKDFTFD
Chain of TgIMPα (A0A125YID0 entry or part of it): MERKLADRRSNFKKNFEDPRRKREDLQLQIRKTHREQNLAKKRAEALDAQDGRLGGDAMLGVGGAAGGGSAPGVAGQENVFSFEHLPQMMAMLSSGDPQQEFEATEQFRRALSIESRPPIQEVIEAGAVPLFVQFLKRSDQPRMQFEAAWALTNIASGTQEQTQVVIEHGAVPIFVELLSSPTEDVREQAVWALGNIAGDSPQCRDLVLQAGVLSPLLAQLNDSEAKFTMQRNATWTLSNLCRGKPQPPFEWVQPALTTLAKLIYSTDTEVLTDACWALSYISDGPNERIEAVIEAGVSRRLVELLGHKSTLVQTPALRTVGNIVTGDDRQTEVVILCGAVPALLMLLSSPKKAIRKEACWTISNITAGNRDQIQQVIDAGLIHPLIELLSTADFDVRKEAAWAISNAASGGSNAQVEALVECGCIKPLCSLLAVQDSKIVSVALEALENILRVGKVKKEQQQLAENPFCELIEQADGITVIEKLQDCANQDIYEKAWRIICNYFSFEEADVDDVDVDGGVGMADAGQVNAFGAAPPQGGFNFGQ

What is called IC50 is the point on the concentration scale where inhibition reaches its midpoint. The term inhibition denotes how much of the control response was suppressed. Regarding `O=C(/C=C/c1ccc(O)c(O)c1)OCCc1ccccc1` [CAPE, Caffeic acid phenethyl ester], the half-inhibitory concentration (IC50) amounted to 1800 ± 300 nM in assay [1]; 2900 ± 900 nM in assay [2]; 7500 ± 1100 nM in assay [3] (Plasmodium falciparum, 3D7, 72 h, parasites in culture, pooled, mean ± SD (n = 3)); 6500 nM in assay [3] (Plasmodium falciparum, 3D7, 72 h, single typical experiment (Figure 6)). Also, the inhibition at 10 µM in assay [1] (read-out: % Inhibition of IMPα-NLS Interaction PfIMPα) was 84%; in assay [2] (read-out: % Inhibition of IMPα-NLS Interaction TgIMPα) it was 62%; in assay [3] (Plasmodium falciparum, 3D7, 10 µM, 72 h, 0.25% parasitemia (Figure 5A), read-out: inhibition of P. falciparum growth (HRP2 levels)) it was > 50%.

On to `CC(=O)OC[C@H]1O[C@@H]([S-])[C@H](OC(C)=O)[C@@H](OC(C)=O)[C@@H]1OC(C)=O.CCP(CC)CC.[Au+]` [auranofin], for which, in assay [1], the “% Inhibition of IMPα-NLS Interaction PfIMPα” value worked out at 94%. Also, in assay [2], the “% Inhibition of IMPα-NLS Interaction TgIMPα” value worked out at 90%. Besides, the IC50 in assay [2] (setting [4]) is 80 ± 10 nM; in assay [2] (single experiment (Figure 3), IMPα 5 nM, NLS 30 nM, read-out: IC50 TgIMPα:T-ag-NLS-GFP), 50 nM. The “inhibition of P. falciparum growth (HRP2 levels)” value in assay [3] (setting [5]) is > 50%.

For `CC(C)(C)c1ccc(S(=O)(=O)/C=C/C#N)cc1` [Bay 11-7085], the “% Inhibition of IMPα-NLS Interaction PfIMPα” value in assay [1] was found to be 75%. Further, the “% Inhibition of IMPα-NLS Interaction TgIMPα” value in assay [2] is on record as 0%. Also, the IC50 in assay [2] (setting [4]) is 30400 ± 600 nM; in assay [3] (parasites in culture, 72 h, pooled, mean ± SD (n = 3)), > 10000 nM. Moreover, the “fold higher IC50 for TgIMPα-NLS compared to PfIMPα-TGS-NLS interaction” value in assay [2] (selectivity for PfIMPα) is ~16 fold. Moreover, in assay [3] (setting [5]), the “inhibition of P. falciparum growth (HRP2 levels)” value is recorded as ~20%.
